The values that follow come from patent US20100029609A1 (priority 2006, published 2010).

The target of this test is T1, human S1P1 receptors (Homo sapiens, UniProt P21453).
T1 construct: expressed in transfected cells; host or cells: HeLa (human cervix carcinoma, ATCC CCL2), HeLa-S1P1/Gα16 cell clone 1
T1 sequence (P21453 whole entry): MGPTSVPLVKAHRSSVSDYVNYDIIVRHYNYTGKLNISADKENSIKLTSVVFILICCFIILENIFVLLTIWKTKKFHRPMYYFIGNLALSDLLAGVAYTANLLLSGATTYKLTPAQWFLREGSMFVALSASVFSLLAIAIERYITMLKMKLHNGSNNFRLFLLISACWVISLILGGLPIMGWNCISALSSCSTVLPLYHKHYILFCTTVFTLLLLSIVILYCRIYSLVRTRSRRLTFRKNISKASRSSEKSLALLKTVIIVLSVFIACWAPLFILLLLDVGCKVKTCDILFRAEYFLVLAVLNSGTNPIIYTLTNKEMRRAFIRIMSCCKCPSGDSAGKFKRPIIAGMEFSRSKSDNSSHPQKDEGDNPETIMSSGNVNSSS
The experiment in a line: Human S1P Receptor Calcium FLIPR Antagonist Assay, HeLa Gα16 S1P1. Format: cell-based. Conditions: HeLa-S1P1/Gα16 cells; antagonism of Ca2+ signal of probing agonist GNF-AC-1 at EC80. The source says:
Human S1P Receptor Calcium FLIPR Antagonist Assays
The assay measures intracellular changes of Ca^2+ mediated by the synthetic probing agonist 3-{[2-(2-Trifluoromethyl-biphenyl-4-yl)-benzo[b]thiophen-5-ylmethyl]-amino}-propionic acid (GNF-AC-1) in the HeLa-S1P1/Gα16 cell clone 1: HeLa (human cervix carcinoma, ATCC CCL2) cells stably expressing N-terminally myc-tagged human S1P1 receptors (GenBank™ accession No. NM_001400; UNIPROT P21453) and promiscuous Gα16 protein (GenBank™ accession number M63904, Swissprot P30679) are cultured at 37° C., 5% CO2, and 95% relative humidity. The cells are plated in 384 well black plates (10,000 cells per well). After 24 hours the cells are loaded with Fluo4-AM (1.6 μM in HBSS and 2.5 mM probenicid) for 1 hour at 37° C. After washing, the cells are transferred to the FLIPR. The test compounds are added at different concentrations (≦30 μM) in HBSS in the presence of 0.1% BSA and changes in fluorescence are recorded (indication of agonism). The probing agonist is added 15 minutes afterwards to the wells at a concentration giving 80% of the maximal activity (EC80). After each addition time points are collected as follows: 20 time points (2 seconds) before the addition of the agonist (Fmin) and 60 time points (1 or 2 seconds) after the addition of the probing agonist. This allows the determination of the maximal fluorescence (Fmax). The ratio (Fmax-Fmin)/Fmin is plotted against the log of the concentration of the test compounds and the IC50 (relative antagonism) is determined with the help of XLfit-4 software. […] A dose response curve of the probing agonist is determined on each plate in parallel. The compounds of the invention are typically active in this assay at a concentration ranging typically from <1 nM to 30 μM, usually from less than 1 nanomolar to 1 micromolar.
The IC50 is the concentration that inhibits the measured activity by half. In the case of `Cc1cc(S(=O)(=O)Nc2cccc(-c3cc(C)c(C(=O)N[C@@H](C)C(N)=O)c(C)c3)c2)c(C)cc1Cl` [Example 151, 3′-(4-Chloro-2,5-dimethyl-benzenesulfonylamino)-3,5-dimethyl-biphenyl-4-carboxylic acid ((S)-1-carbamoyl-ethyl)-amide], the half-maximal inhibitory concentration (IC50) was 8 nM.
In the case of `Cc1cc(S(=O)(=O)Nc2cccc(-c3cc(C)c(C(=O)N[C@@H](CO)C(=O)O)c(C)c3)c2)c(C)cc1Cl` [Example 131, (S)-2-{[3′-(4-Chloro-2,5-dimethyl-benzenesulfonylamino)-3,5-dimethyl-biphenyl-4-carbonyl]-amino}-3-hydroxy-propionic acid] it was 0.6 nM; in that of `Cc1cc(S(=O)(=O)Nc2cccc(-c3cc(C)c(C(=O)NC4(C(=O)O)CNC4)c(C)c3)c2)c(C)cc1Cl` [Example 145, 3-{[3′-(4-Chloro-2,5-dimethyl-benzenesulfonylamino)-3,5-dimethyl-biphenyl-4-carbonyl]-amino}-azetidine-3-carboxylic acid], 2 nM.
In the case of `Cc1cc(S(=O)(=O)Nc2cccc(-c3cc(C)c(C(=O)N[C@@H](C)C(=O)O)c(C)c3)c2)c(C)cc1Cl` [Example 132, (S)-2-{[3′-(4-Chloro-2,5-dimethyl-benzenesulfonylamino)-3,5-dimethyl-biphenyl-4-carbonyl]-amino}-propionic acid] it was 1.1 nM; in that of `Cc1cc(S(=O)(=O)Nc2cccc(-c3cnc(C(=O)N[C@@H](CO)C(=O)O)cn3)c2)c(C)cc1Cl` [Example 79, (S)-2-({5-[3-(4-Chloro-2,5-dimethyl-benzenesulfonylamino)-phenyl]-pyrazine-2-carbonyl}-amino)-3-hydroxy-propionic acid], 5 nM.
For `Cc1cc(S(=O)(=O)Nc2cccc(-c3ccc(C(=O)NC4(C(=O)O)CN(C)C4)c(C)c3)c2)c(C)cc1Cl` [Example 55, 3-{[3′-(4-Chloro-2,5-dimethyl-benzenesulfonylamino)-3-methyl-biphenyl-4-carbonyl]-amino}-1-methyl-azetidine-3-carboxylic acid] the value was 5 nM; for `Cc1cc(S(=O)(=O)Nc2cccc(-c3ccc(C(=O)N[C@H](C(=O)O)[C@H](C)O)c(C)c3)c2)c(C)cc1Cl` [Example 59, (2S,3S)-2-{[3′-(4-Chloro-2,5-dimethyl-benzenesulfonylamino)-3-methyl-biphenyl-4-carbonyl]-amino}-3-hydroxy-butyric acid], 0.7 nM; for `CC[C@H](NC(=O)c1c(C)cc(-c2cccc(NS(=O)(=O)c3cc(C)c(Cl)cc3C)c2)cc1C)C(=O)O` [Example 135, (S)-2-{[3′-(4-Chloro-2,5-dimethyl-benzenesulfonylamino)-3,5-dimethyl-biphenyl-4-carbonyl]-amino}-butyric acid], 1.7 nM.
`Cc1cc(S(=O)(=O)Nc2cccc(-c3ccc(C(=O)NCC(=O)O)cc3)c2)c(C)cc1Cl` [Example 23, {[3′-(4-Chloro-2,5-dimethyl-benzenesulfonylamino)-biphenyl-4-carbonyl]-amino}-acetic acid]: the IC50 came out at 3.2 nM.
For `Cc1cc(S(=O)(=O)Nc2cccc(-c3cc(C)c(C(=O)NC4(C(=O)O)CCN(C)CC4)c(C)c3)c2)c(C)cc1Cl` [Example 155, 4-{[3′-(4-Chloro-2,5-dimethyl-benzenesulfonylamino)-3,5-dimethyl-biphenyl-4-carbonyl]-amino}-1-methyl-piperidine-4-carboxylic acid] the value was 2 nM; for `Cc1cc(S(=O)(=O)Nc2cccc(-c3cc(C)c(C(=O)NC(C)(C)C(=O)O)c(C)c3)c2)c(C)cc1Cl` [Example 148, 2-{[3′-(4-Chloro-2,5-dimethyl-benzenesulfonylamino)-3,5-dimethyl-biphenyl-4-carbonyl]-amino}-2-methyl-propionic acid], 5 nM.
For `Cc1cc(S(=O)(=O)Nc2cccc(-c3ccc(C(=O)N[C@H](CO)C(=O)O)cc3)c2)c(C)cc1Cl` [Example 86] the value was 1.5 nM.
For `Cc1cc(S(=O)(=O)Nc2cccc(-c3cc(C)c(C(=O)NC4(C(=O)O)CN(C)C4)c(C)c3)c2)c(C)cc1Cl` [Example 150, 3-{[3′-(4-Chloro-2,5-dimethyl-benzenesulfonylamino)-3,5-dimethyl-biphenyl-4-carbonyl]-amino}-1-methyl-azetidine-3-carboxylic acid] the value was 1.6 nM; for `COC[C@H](NC(=O)c1ccc(-c2cccc(NS(=O)(=O)c3cc(C)c(Cl)cc3C)c2)cc1C)C(=O)O` [Example 60, (S)-2-{[3′-(4-Chloro-2,5-dimethyl-benzenesulfonylamino)-3-methyl-biphenyl-4-carbonyl]-amino}-3-methoxy-propionic acid], 1.5 nM.
Turning to `Cc1cc(S(=O)(=O)Nc2cccc(-c3ccc(C(=O)N[C@@H](C)C(=O)O)c(C)c3)c2)c(C)cc1Cl` [Example 63, (S)-2-{[3′-(4-Chloro-2,5-dimethyl-benzenesulfonylamino)-3-methyl-biphenyl-4-carbonyl]-amino}-propionic acid], the IC50 was 1.3 nM.
For `Cc1cc(S(=O)(=O)Nc2cccc(-c3ccc(C(=O)NC4(C(=O)O)CNC4)c(C)c3)c2)c(C)cc1Cl` [Example 51, 3-{[3′-(4-Chloro-2,5-dimethyl-benzenesulfonylamino)-3-methyl-biphenyl-4-carbonyl]-amino}-azetidine-3-carboxylic acid] the value was 3 nM.
For `Cc1cc(S(=O)(=O)Nc2cccc(-c3cc(C)c(C(=O)N(C)[C@@H](C)C(=O)O)c(C)c3)c2)c(C)cc1Cl` [Example 139, (S)-2-{[3′-(4-Chloro-2,5-dimethyl-benzenesulfonylamino)-3,5-dimethyl-biphenyl-4-carbonyl]-methyl-amino}-propionic acid] the value was 1.1 nM; for `COc1cc(-c2cccc(NS(=O)(=O)c3cc(C)c(Cl)cc3C)c2)ccc1C(=O)NCC(=O)O` [Example 70, {[3′-(4-Chloro-2,5-dimethyl-benzenesulfonylamino)-3-methoxy-biphenyl-4-carbonyl]-amino}-acetic acid], 1 nM; for `Cc1cc(S(=O)(=O)Nc2cccc(-c3cc(C)c(C(=O)NCC(=O)O)c(C)c3)c2)c(C)cc1Cl` [Example 137, {[3′-(4-Chloro-2,5-dimethyl-benzenesulfonylamino)-3,5-dimethyl-biphenyl-4-carbonyl]-amino}-acetic acid], 1 nM.
For `Cc1cc(S(=O)(=O)Nc2cccc(-c3ccc(C(=O)N[C@@H](CO)C(=O)O)cc3)c2)c(C)cc1Cl` [Example 28] the value was 2.8 nM; for `Cc1cc(S(=O)(=O)Nc2cccc(-c3cc(C)c(C(=O)NC4(C(=O)O)CCC4)c(C)c3)c2)c(C)cc1Cl` [Example 147, 1-{[3′-(4-Chloro-2,5-dimethyl-benzenesulfonylamino)-3,5-dimethyl-biphenyl-4-carbonyl]-amino}-cyclobutanecarboxylic acid], 3.5 nM; for `Cc1cc(S(=O)(=O)Nc2cccc(-c3cc(C)c(C(=O)N[C@H](CO)C(=O)O)c(C)c3)c2)c(C)cc1Cl` [Example 133, (R)-2-{[3′-(4-Chloro-2,5-dimethyl-benzenesulfonylamino)-3,5-dimethyl-biphenyl-4-carbonyl]-amino}-3-hydroxy-propionic acid], 3.5 nM.
